Assay results as given in EP4643869A1, “USE OF GNRH ANTAGONISTS SUCH AS TEVERELIX TO TREAT ACUTE URINARY RETENTION” (Antev Limited, priority 2024, dated 2025).
Structures can show the parent of a compound that is named as a salt. Where a SMILES comes first, the peptide text is derived from it. [ ]: non-standard residue; d: D form. dPhe(4-Cl) = N[C@H](Cc1ccc(Cl)cc1)C(=O)O; d2Nal = N[C@H](Cc1ccc2ccccc2c1)C(=O)O; d(hCit) = NC(=O)NCCCC[C@@H](N)C(=O)O; Lys(iPr) = CC(C)NCCCC[C@H](N)C(=O)O; d3Pal = N[C@H](Cc1cccnc1)C(=O)O

Key:
male and female subjects = test: Safety across 16 Phase 1 and Phase 2 clinical trials; type: in vivo; details: 1,117 injections s.c. or i.m.; no SUSARs reported
Experimental: Teverelix-TFA has been studied in 450 male and female subjects in 16 Phase 1 and Phase 2 clinical trials. Teverelix-TFA has been tested in various dosing regimens in Phase 2 clinical trials in 97 patients with BPH.
Administrations have ranged from a single dose of 0.125 mg up to 180 mg repeat doses of teverelix for three consecutive days.

testosterone = test: PKPD of single-dose teverelix-TFA, subcutaneous or intramuscular; type: in vivo; details: single dose of 120 mg subcutaneous
[1] = Plasma concentrations of teverelix (Experiment I); type: in vivo, human; details: 60 mg s.c. on Day 1 and Day 3
Experimental: (§1) The study comprised two periods: a four-week single-blind placebo run-in period for all patients to remove any placebo responders and reduce between-patient variability in baseline measurements. This was followed by a 16-week randomised, double-blind, placebo-controlled, parallel group period for eligible patients. Following screening (Day-28), patients entered the placebo run-in period and received two subcutaneous injections of placebo, 48 h apart. During this period, one visit was planned for training purposes (e.g., IPSS). At the end of the placebo run-in period, patients still meeting the eligibility criteria were randomised to receive two subcutaneous injections of 60 mg teverelix or placebo, 48 h apart, on day 1 and day 3. Teverelix was supplied as a freeze-dried powder that was reconstituted with 5% mannitol in water for injection. Corresponding placebo formulations, without teverelix-TFA, were also prepared. Injections were given in the abdomen. Patients attended follow-up visits for up to 16 weeks.
Blood samples were gathered in the morning on Day 1 and Day 3 prior to dosing, along with assessments at the conclusion of Weeks 1, 2, 3, 4, 8, 12, and the final evaluation at Week 16, for the measurement of teverelix, testosterone, and dihydrotestosterone (DHT). Plasma concentrations of teverelix were analysed to delineate the release profile of the active substance from teverelix.

[2] = system: patients 50 years or over, with BPH and bothersome voiding symptoms; test: Investigator rating of efficacy and tolerability at final assessment (Experiment I); type: in vivo, human
Experimental: This was a multicentre (n=8), randomised, double-blind, placebo-controlled study in treatment of patients 50 years or over, with BPH and bothersome voiding symptoms characterized as an International Prostate Symptom Score (IPSS score ≥13) and a uroflow <13 mL/sec for a voided volume ≥150 mL. Exclusion criteria included an urgent need for prostate surgery, elevated prostate specific antigen (PSA) levels above the upper limit of normal relative to age, major organ dysfunction, prior surgical treatment of the prostate or bladder, and a large residual urine volume (>350 mL).
The study comprised two periods: a four-week single-blind placebo run-in period for all patients to remove any placebo responders and reduce between-patient variability in baseline measurements. This was followed by a 16-week randomised, double-blind, placebo-controlled, parallel group period for eligible patients. Following screening (Day-28), patients entered the placebo run-in period and received two subcutaneous injections of placebo, 48 h apart. During this period, one visit was planned for training purposes (e.g., IPSS). […]
At the final assessment, the investigator assessed efficacy and tolerability as either very good/good, satisfactory, poor/insufficient, or not assessable.

[3] = system: patients 50 years or over, with BPH and bothersome voiding symptoms; test: Safety: adverse events (Experiment I); type: in vivo, human
Experimental: as §1
Safety included the assessment of adverse events (AEs), vital signs (supine blood pressure and pulse), electrocardiograms (ECG), and clinical laboratory parameters (haematology, clinical chemistry, and urinalysis). Drug-related AEs were defined as those with a relationship to study drug of `likely' or `not assessable'.

[4] = system: patients with a first episode of AUR related to BPH; details: alfuzosin 10 mg once daily; placebo 39.7%; cited from earlier work

SMILES	overall safety and tolerability (male and female subjects)	PKPD profile versus two subcutaneous injections of 60 mg two days apart (testosterone)	time until which teverelix plasma concentrations kept rising [1]	patients rated by the investigator as having very good/good tolerability [2]	patients reporting an AE likely drug-related or not assessable ([3]; 22 patients of 41) [%]	intensity of drug-related AEs ([3]; in vivo)	patients with drug-related hyperuricaemia ([3]; in vivo)	patients with drug-related urinary retention ([3]; in vivo) [patient]	serious AEs, assessed as not drug related ([3]; in vivo)	injection site induration ([3]; share of patients) [%]	pain (AE) ([3]; share of patients) [%]	subcutaneous injection site reactions ([3]; share of patients) [%]	success rate after 6 months (successful TWOC and no AUR relapse nor any need for surgery) [4] [%]
CC(=O)N[C@H](Cc1ccc2ccccc2c1)C(=O)N[C@H](Cc1ccc(Cl)cc1)C(=O)N[C@H](Cc1cccnc1)C(=O)N[C@@H](CO)C(=O)N[C@@H](Cc1ccc(O)cc1)C(=O)N[C@H](CCCCNC(N)=O)C(=O)N[C@@H](CC(C)C)C(=O)N[C@@H](CCCCNC(C)C)C(=O)N1CCC[C@H]1C(=O)N[C@H](C)C(N)=O [teverelix, N-Ac-d-Nal^1,d-pCl-Phe^2,d-Pal^3,d-(Hci)^6,Lys(iPr)^8,d-Ala^10 trifluoroacetate] (Ac-[d2Nal][dPhe(4-Cl)][d3Pal]SY[d(hCit)]L[Lys(iPr)]P[dA]-NH2)	safe and well-tolerated	comparable	until the end of Week 3	all patients	53.7	mild intensity	one patient	1	cholelithiasis/pancreatitis	17.1	2.4	31.7	
COc1cc2nc(N(C)CCCNC(=O)C3CCCO3)nc(N)c2cc1OC (stereo not shown) [alfuzosin]													43.5
